These results are taken from patent US20230013336A1, “SYNECHOCOCCUS ELONGATUS MUTANTS, VARIANTS AND USES THEREOF TO PRODUCE AN ESSENTIAL AMINO ACID” (Purdue Research Foundation, priority 2021, published 2023).

The test system of this assay is PCC 11801. The assay can be described thus: MMS mutagenesis kill rate. The format is cell-based, Synechococcus elongatus sp. PCC 11801. The following applies: 1% (v/v) MMS for 90 seconds, quenched with 5% sodium thiosulfate. As for the experimental part: Random mutagenesis was performed by modifying a previously described protocol (Deshpande et al. (2020), infra) with methylmethanesulfonate (MMS) and ultra-violet (UV) irradiation as the mutagens. Cells were prepared for random mutagenesis by pelleting exponentially growing cultures (OD ˜0.6-1) of PCC 11801 and resuspending in 1 mL of fresh BG-11M media.
For MMS mutagenesis, 1% (v/v) MMS (Sigma-Aldrich, St. Louis, Mo.) was added for 90 seconds, and the reaction was quenched by the addition of 5% (w/w) sodium thiosulfate solution to yield a ˜85-95% kill rate. For UV mutagenesis, the culture was subjected to 90 seconds of UV light to yield a kill rate of ˜90%.
The mutagenized cultures were incubated at 38° C. overnight in the dark before selection. To select for overproducers, the phenylalanine (Phe) analog 3-(2-thienyl)-dl-alanine (Sigma-Aldrich, St. Louis, Mo.) was applied to BG-11M agar plates in concentrations ranging from 0.5-2 mg/ml. The wild-type and mutagenized cultures were diluted and spread on BG-11M (to test kill rate) and BG-11M analog-containing plates, and were incubated at 38° C. until colonies appeared. Colonies (i.e. variant Synechococcus elongatus sp. strains) that successfully grew on analog selection plates were picked (e.g., selected) and re-streaked on selective plates for at least three rounds to enable complete segregation of mutations.

For the compound `COS(C)(=O)=O` [MMS, methylmethanesulfonate], the kill rate was 85-95%.
